Experimental data taken from US11944623B2, “Modulators of Kv3 channels to treat pain” (Autifony Therapeutics Limited, priority 2015, dated 2024).

Target: T1, human Kv3.3 channels (Homo sapiens, UniProt Q14003)
T1 construct: expressed in transfected cells
T1 sequence (Q14003 1-757): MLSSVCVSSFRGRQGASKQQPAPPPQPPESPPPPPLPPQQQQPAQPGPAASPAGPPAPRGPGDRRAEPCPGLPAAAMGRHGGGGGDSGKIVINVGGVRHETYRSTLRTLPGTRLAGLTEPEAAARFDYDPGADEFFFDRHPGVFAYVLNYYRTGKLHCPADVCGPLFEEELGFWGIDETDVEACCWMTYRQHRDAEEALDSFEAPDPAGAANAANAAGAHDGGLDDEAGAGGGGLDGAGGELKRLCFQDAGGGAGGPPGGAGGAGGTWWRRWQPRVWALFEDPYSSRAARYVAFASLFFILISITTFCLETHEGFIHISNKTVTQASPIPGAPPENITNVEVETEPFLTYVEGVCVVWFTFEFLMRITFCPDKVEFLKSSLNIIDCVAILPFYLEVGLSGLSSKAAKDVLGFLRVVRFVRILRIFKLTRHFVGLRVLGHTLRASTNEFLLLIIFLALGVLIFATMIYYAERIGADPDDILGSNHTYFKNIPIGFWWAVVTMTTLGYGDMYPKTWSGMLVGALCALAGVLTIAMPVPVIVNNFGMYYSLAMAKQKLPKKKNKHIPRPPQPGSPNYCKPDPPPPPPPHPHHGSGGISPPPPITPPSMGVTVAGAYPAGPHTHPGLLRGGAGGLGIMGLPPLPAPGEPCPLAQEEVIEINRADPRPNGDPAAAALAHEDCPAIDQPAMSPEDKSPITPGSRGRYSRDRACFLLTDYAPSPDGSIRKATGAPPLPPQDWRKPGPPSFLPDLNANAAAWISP
Assay: hKv3.3 IonWorks Quattro whole-cell current potentiation assay
Format: cell-based
Details: for EC50: read-out: pEC50 for Kv3.3 (converted); for mean increase in human Kv3.3 peak current at 0 mV: 12.5 micromolar
Text: The ability of the compounds of the invention to modulate the voltage-gated potassium channel subtypes Kv3.3/Kv3.2/Kv3.1 may be determined using the following assay. Analogous methods may be used to investigate the ability of the compounds of the invention to modulate other channel subtypes.
To assess compound effects on human Kv3.3 channels (hKv3.3), a stable cell line expressing human Kv3.3 channels was created by transfecting Chinese Hamster Ovary (CHO)-K1 cells with a pBacMire_KCNC-3 vector. Cells were cultured in DMEM/F12 (Gibco) supplemented with 10% Foetal Bovine Serum (Gibco), 1× non-essential amino acids (Invitrogen) and geneticin (G418) 400 microg/mL. Cells were grown and maintained at 37° C. in a humidified environment containing 5% CO2 in air.
The day of the experiment, cells were removed from the incubator and the culture medium removed. Cells were washed with 5 ml of Dulbecco's PBS (DPBS) calcium and magnesium free and detached by the addition of 3 ml Versene (Invitrogen, Italy) followed by a brief incubation at 37° C. for 5 minutes. The flask was tapped to dislodge cells and 10 ml of DPBS containing calcium and magnesium was added to prepare a cell suspension. The cell suspension was then placed into a 15 ml centrifuge tube and centrifuged for 2 min at 1200 rpm. After centrifugation, the supernatant was removed and the cell pellet re-suspended in 4 ml of DPBS containing calcium and magnesium using a 5 ml pipette to break up the pellet. Cell suspension volume was then corrected to give a cell concentration for the assay of approximately 3 million cells per ml.
Experiments were conducted at room temperature using IonWorks Quattro™ planar array electrophysiology technology (Molecular Devices Corp.) with PatchPlate™ PPC. Stimulation protocols and data acquisition were carried out using a microcomputer (Dell Pentium 4). Planar electrode hole resistances (Rp) were determined by applying a 10 mV voltage step across each well. These measurements were performed before cell addition. After cell addition and seal formation, a seal test was performed by applying a voltage step from −80 mV to −70 mV for 160 ms. Following this, amphotericin-B solution was added to the intracellular face of the electrode to achieve intracellular access. Cells were held at −70 mV. Leak subtraction was conducted in all experiments by applying 50 ms hyperpolarizing (10 mV) prepulses to evoke leak currents followed by a 20 ms period at the holding potential before test pulses. For hKv3.2 and hKv3.1 assays, from the holding potential of −70 mV, a first test pulse to −15 mV was applied for 100 ms and following a further 100 ms at −70 mV, a second pulse to 40 mV was applied for 50 ms. Cells were then maintained for a further 100 ms at −100 mV and then a voltage ramp from −100 mV to 40 mV was applied over 200 ms. For hKv3.3 assays, from the holding potential of −70 mV, a first test pulse to 0 mV was applied for 500 ms and following a further 100 ms at −70 mV, a second pulse to 40 mV was applied for 200 ms. These longer test pulses were used to study inactivation of hKv3.3 channels.
Test pulses protocol may be performed in the absence (pre-read) and presence (post-read) of the test compound. Pre- and post-reads may be separated by the compound addition followed by a 3-minute incubation.
The intracellular solution contained the following (in mM): K-gluconate 100, KCl 54, MgCl2 3.2, HEPES 5, adjusted to pH 7.3 with KOH. Amphotericin-B solution was prepared as 50 mg/ml stock solution in DMSO and diluted to a final working concentration of 0.1 mg/ml in intracellular solution. The external solution was Dulbecco's Phosphate Buffered Saline (DPBS) and contained the following (in mM): CaCl2 0.90, KCl 2.67, KH2PO4 1.47, MgCl·6H2O 0.493, NaCl 136.9, […] 8.06, with a pH of 7.4. […]

EC50	mean increase in human Kv3.3 peak current at 0 mV	Structure (SMILES)
17.4 µM		Cc1ccc(Oc2ccc(-n3c(C)n[nH]c3=O)cn2)c2c1OCC21CC1 [Compound 3, 5-methyl-4-{6-[(7-methylspiro[1-benzofuran-3,1′-cyclopropan]-4-yl)oxy]pyridin-3-yl}-2,4-dihydro-3H-1,2,4-triazol-3-one]
6.76 µM	192%	Cc1ccc(Oc2ncc(N3C(=O)NC(C)(C)C3=O)cn2)c2c1OCC21CC1 [Compound 1, 5,5-dimethyl-3-[2-(7-methylspiro[2H-benzofuran-3,1′-cyclopropane]-4-yl)oxypyrimidin-5-yl]imidazolidine-2,4-dione]
11.7 µM	113%	CC[C@@]1(C)NC(=O)N(c2cnc(Oc3ccc(C)c(OC(F)(F)F)c3)nc2)C1=O [Compound 2, (5R)-5-ethyl-5-methyl-3-[2-({4-methyl-3-[(trifluoromethyl)oxy]phenyl}oxy)-5-pyrimidinyl]-2,4-imidazolidinedione]
	365%	CC[C@H]1NC(=O)N(c2ccc(Oc3ccc(C)c4c3C3(CC3)CO4)nc2)C1=O [Compound 4, (5R)-5-ethyl-3-[6-(7-methylspiro[2H-benzofuran-3,1′-cyclopropane]-4-yl)oxy-3-pyridyl]imidazolidine-2,4-dione]
